By pKi is commonly meant the negative decadic logarithm of the Ki, by convention in mol/L. Read a high pKi as a small Ki.

pKi: −log10 of the molar value.

One test deals with T1, human adenosine A2A receptor (Homo sapiens, UniProt P29274).
T1 construct: expressed in transfected cells; host or cells: CHO cells, semliki forest virus expression system; membrane preparation
T1 sequence (P29274 whole entry): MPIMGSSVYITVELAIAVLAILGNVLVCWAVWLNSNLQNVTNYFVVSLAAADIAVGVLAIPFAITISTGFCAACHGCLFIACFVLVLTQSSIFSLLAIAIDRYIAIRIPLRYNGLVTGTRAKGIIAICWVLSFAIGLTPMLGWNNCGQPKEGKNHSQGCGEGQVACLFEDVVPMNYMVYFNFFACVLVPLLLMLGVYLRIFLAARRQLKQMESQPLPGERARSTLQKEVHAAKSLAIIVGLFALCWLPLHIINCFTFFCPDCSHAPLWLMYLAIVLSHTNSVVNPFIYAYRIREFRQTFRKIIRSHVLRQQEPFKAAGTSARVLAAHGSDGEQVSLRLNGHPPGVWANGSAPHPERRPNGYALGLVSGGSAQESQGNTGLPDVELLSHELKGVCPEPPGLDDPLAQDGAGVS
In words: Human adenosine A2A receptor [3H]-SCH-58261 binding assay.
Details: not given
How it is done:
The gene encoding human adenosine A2A receptor was recombinantly introduced and expressed in chinese hamster ovary (CHO) cells using the semliki forest virus expression system. Cells were harvested, washed twice by centrifugation, homogenised and again washed by centrifugation. The final washed membrane pellet was suspended in a Tris (50 mM) buffer containing 120 mM NaCl, 5 mM KCl, 2 mM CaCl2 and 10 mM MgCl2 (pH 7.4) (buffer A). The [^3H]-SCH-58261 (Dionisotti et al., 1997, Br. J. Pharmacol. 121, 353; 1 nM) binding assay was carried out in 96-well plates in the presence of 2.5 μg of membrane protein, 0.5 mg of Ysi-poly-1-lysine SPA beads and 0.1 U adenosine deaminase in a final volume of 200 μl of buffer A. Non-specific binding was defined using xanthine amine congener (XAC; […]). Compounds were tested at 10 concentrations from 10 μM-0.3 nM. All assays were conducted in duplicate and repeated at least two times. Assay plates were incubated for 1 hour at room temperature before centrifugation and then bound ligand determined using a Packard Topcount scintillation counter. IC50 values were calculated using a non-linear curve fitting program and Ki values calculated using the Cheng-Prussoff equation.
Turning to `N#Cc1c(-c2ccccc2)nc(N)nc1-c1ccco1` [Example 148, 2-Amino-4-furan-2-yl-6-phenyl-pyrimidine-5-carbonitrile], the pKi is 8.19.

The test is the same for the next values; noted with them: human A2a receptor, membranes of CHO cells, [3H]-SCH-58261; read-out: pKi (affinity to the human A2a receptor) (converted).
On to `N#Cc1c(NCc2cccc(C(F)(F)F)c2)nc(N)nc1-c1ccco1` [Example 346, 2-Amino-4-furan-2-yl-6-(3-trifluoromethyl-benzylamino)-pyrimidine-5-carbonitrile], for which the Ki was 2.4 nM.

In the case of `N#Cc1c(NCc2ccccc2Br)nc(N)nc1-c1ccco1` [Example 359, 2-Amino-4-(2-bromo-benzylamino)-6-furan-2-yl-pyrimidine-5-carbonitrile], the Ki was 0.631 nM.

As to `Cc1ccc(COc2nc(N)nc(-c3cc(Br)co3)c2C#N)nc1` [Example 532, 2-Amino-4-(4-bromo-furan-2-yl)-6-(5-methyl-pyridin-2-yl-methoxy)-pyrimidine-5-carbonitrile], the Ki was 5.62 nM.

As for `CN(C)c1ccc(CNc2nc(N)nc(-c3ccco3)c2C#N)cc1` [Example 312, 2-Amino-4-(4-dimethylamino-benzylamino)-6-furan-2-yl-pyrimidine-5-carbonitrile], the Ki is 9.77 nM.

Take `Nc1nc(SCCc2ccccn2)c(Br)c(-c2ccco2)n1` [Example 353, 5-Bromo-4-furan-2-yl-6-(2-pyridin-2-yl-ethylsulfanyl)-pyrimidin-2-yl-amine]: the Ki is 3.8 nM.

`Nc1nc(OCC=Cc2ccccc2)c(Br)c(-c2ccco2)n1` [Example 280, 5-Bromo-4-furan-2-yl-6-(3-phenyl-allyloxy)-pyrimidin-2-yl-amine]: the Ki is 9.33 nM.

In the case of `Cc1cnc(COc2nc(N)nc(-c3ccc(Cl)o3)c2C#N)c(C)c1` [Example 526, 2-Amino-4-(5-chloro-furan-2-yl)-6-(3,5-dimethyl-pyridin-2-ylmethoxy)-pyrimidine-5-carbonitrile], the Ki is 4.27 nM.

In the case of `Nc1nc(SCCc2ccccn2)c(Cl)c(-c2ccco2)n1` [Example 354, 5-Chloro-4-furan-2-yl-6-(2-pyridin-2-yl-ethylsulfanyl)-pyrimidin-2-yl-amine], the Ki was 4.9 nM.

For `N#Cc1c(OCCc2ccccn2)nc(N)nc1-c1ccco1` [Example 241, 2-Amino-4-furan-2-yl-6-(2-pyridin-2-yl-ethoxy)-pyrimidine-5-carbonitrile], the Ki is 2.19 nM.

As to `N#Cc1c(NCc2ccccn2)cc(N)nc1-c1ccco1` [Example 371, 6-Amino-2-furan-2-yl-4-[(pyridin-2-yl-methyl)-amino]-nicotinonitrile], the Ki is 8.13 nM.

Take `N#Cc1c(OCc2ccccn2)nc(N)nc1-c1ccco1` [Example 76, 2-Amino-4-furan-2-yl-6-(pyridin-2-ylmethoxy)-pyrimidine-5-carbonitrile]: the Ki is 2.09 nM.

As to `Cc1ccc(-c2nc(N)nc(NCc3ccccc3)c2C#N)o1` [Example 245, 2-Amino-4-benzylamino-6-(5-methyl-furan-2-yl)-pyrimidine-5-carbonitrile], the Ki was 5.5 nM.

Take `N#Cc1c(NCc2ccc(N)cc2)nc(N)nc1-c1ccco1` [Example 305, 2-Amino-4-(4-amino-benzylamino)-6-furan-2-yl-pyrimidine-5-carbonitrile]: the Ki is 8.91 nM.

As for `Nc1nc(OCCCc2ccccc2)c(I)c(-c2ccco2)n1` [Example 267, 4-Furan-2-yl-5-iodo-6-(3-phenyl-propoxy)-pyrimidin-2-yl-amine], the Ki was 4.37 nM.

Turning to `N#Cc1c(NCc2ccc3ccccc3n2)cc(N)nc1-c1ccco1` [Example 364, 6-Amino-2-furan-2-yl-4-[(quinolin-2-ylmethyl)-amino]-nicotinonitrile], the Ki is 3.89 nM.

With `Cc1cnc(CNc2nc(N)nc(-c3ccco3)c2C#N)c(C)c1` [Example 402, 2-Amino-4-[(3,5-dimethyl-pyridin-2-ylmethyl)-amino]-6-furan-2-yl-pyrimidine-5-carbonitrile], the Ki is 2.14 nM.

On to `N#Cc1c(NCCOc2ccccc2)nc(N)nc1-c1ccco1` [Example 235, 2-Amino-4-furan-2-yl-6-(2-phenoxy-ethylamino)-pyrimidine-5-carbonitrile], for which the Ki is 3.47 nM.

Consider `Nc1nc(SCCc2ccccc2)c(Br)c(-c2ccco2)n1` [Example 269, 5-Bromo-4-furan-2-yl-6-phenethylsulfanyl-pyrimidin-2-yl-amine], for which the Ki is 7.76 nM.

`N#Cc1c(OCc2ccccc2)nc(N)nc1-c1ccco1` [Example 47, 2-Amino-4-benzyloxy-6-furan-2-yl-pyrimidine-5-carbonitrile]: the Ki was 3.8 nM.

Take `COc1ccccc1CNc1nc(N)nc(-c2ccco2)c1C#N` [Example 293, 2-Amino-4-furan-2-yl-6-(2-methoxy-benzylamino)-pyrimidine-5-carbonitrile]: the Ki is 3.72 nM.

Turning to `N#Cc1c(NCCNc2ccccn2)nc(N)nc1-c1ccco1` [Example 330, 2-Amino-4-furan-2-yl-6-[2-(pyridin-2-ylamino)-ethylamino]-pyrimidine-5-carbonitrile], the Ki was 7.94 nM.

As for `N#Cc1c(OCc2cccnc2)nc(N)nc1-c1ccco1` [Example 219, 2-Amino-4-furan-2-yl-6-(pyridin-3-ylmethoxy)-pyrimidine-5-carbonitrile], the Ki is 5.89 nM.

For the compound `Cc1cccnc1COc1nc(N)nc(-c2cc(Br)co2)c1C#N` [Example 534, 2-Amino-4-(4-bromo-furan-2-yl)-6-(3-methyl-pyridin-2-yl-methoxy)-pyrimidine-5-carbonitrile], the Ki was 0.955 nM.

On to `N#Cc1c(SCCc2ccccn2)nc(N)nc1-c1cccs1` [Example 370], for which the Ki is 8.91 nM.

`COc1cccc(CNc2nc(N)nc(-c3ccco3)c2C#N)c1` [Example 291, 2-Amino-4-furan-2-yl-6-(3-methoxy-benzylamino)-pyrimidine-5-carbonitrile]: the Ki was 3.31 nM.

For the compound `N#Cc1c(OCCc2ccccc2)nc(N)nc1-c1ccccc1` [Example 104, 2-Amino-4-phenethyloxy-6-phenyl-pyrimidine-5-carbonitrile], the Ki is 3.98 nM.

Consider `N#Cc1c(NCc2ccccc2Cl)nc(N)nc1-c1ccco1` [Example 360, 2-Amino-4-(2-chloro-benzylamino)-6-furan-2-yl-pyrimidine-5-carbonitrile], for which the Ki was 0.589 nM.

For `Nc1nc(SCc2ccccc2)c(Cl)c(-c2ccco2)n1` [Example 324, 4-Benzylsulfanyl-5-chloro-6-furan-2-yl-pyrimidin-2-yl-amine], the Ki is 9.12 nM.

As for `CSc1nc(N)nc(-c2ccc3c(c2)OCCO3)c1C#N` [Example 23, 2-Amino-4-(2,3-dihydro-benzo[1,4]dioxin-6-yl)-6-methylsulfanyl-pyrimidine-5-carbonitrile], the Ki is 9.12 nM.

On to `Cc1cccnc1CNc1cc(N)nc(-c2ccco2)c1C#N` [Example 376, 6-Amino-2-furan-2-yl-4-[(3-methyl-pyridin-2-yl-methyl)-amino]-nicotinonitrile], for which the Ki is 4.57 nM.

Consider `Cc1cccnc1COc1nc(N)nc(-c2ccco2)c1C#N` [Example 361, 2-Amino-4-furan-2-yl-6-(3-methyl-pyridin-2-yl-methoxy)-pyrimidine-5-carbonitrile], for which the Ki is 0.603 nM.

As to `Cc1cnc(COc2nc(N)nc(-c3cc(Br)co3)c2C#N)c(C)c1` [Example 533, 2-Amino-4-(4-bromo-furan-2-yl)-6-(3,5-dimethyl-pyridin-2-yl-methoxy)-pyrimidine-5-carbonitrile], the Ki was 1.41 nM.

`N#Cc1c(NCc2cc3ccccc3cn2)nc(N)nc1-c1ccco1` [Example 367, 2-Amino-4-furan-2-yl-6-[(isoguinolin-3-yl-methyl)-amino]-pyrimidine-5-carbonitrile]: the Ki is 2.29 nM.

As for `Nc1nc(OCc2ccccc2)c([N+](=O)[O-])c(-c2ccco2)n1` [Example 286, 4-Benzyloxy-6-furan-2-yl-5-nitro-pyrimidin-2-yl-amine], the Ki was 9.55 nM.

Regarding `N#Cc1c(OCCc2ccccn2)nc(N)nc1-c1cccc(F)c1` [Example 405, 2-Amino-4-(3-fluoro-phenyl)-6-(2-pyridin-2-yl-ethoxy)-pyrimidine-5-carbonitrile], the Ki was 7.41 nM.

As to `Cc1cccc(COc2nc(N)nc(-c3ccco3)c2C#N)n1` [Example 237, 2-Amino-4-furan-2-yl-6-(6-methyl-pyridin-2-ylmethoxy)-pyrimidine-5-carbonitrile], the Ki was 2.95 nM.

For the compound `Cc1ccnc(CNc2nc(N)nc(-c3ccco3)c2C#N)c1` [Example 348, 2-Amino-4-furan-2-yl-6-[(4-methyl-pyridin-2-ylmethyl)-amino]-pyrimidine-5-carbonitrile], the Ki was 2.09 nM.

For the compound `Cc1ccc(-c2nc(N)nc(OCc3ccccn3)c2C#N)o1` [Example 247, 2-Amino-4-(5-methyl-furan-2-yl)-6-(pyridin-2-ylmethoxy)-pyrimidine-5-carbonitrile], the Ki is 2.14 nM.

On to `N#Cc1c(NCc2ccc(C(F)(F)F)cc2)cc(N)nc1-c1ccco1` [Example 357], for which the Ki was 9.12 nM.

Regarding `Cc1ccc(CNc2nc(N)nc(-c3ccco3)c2C#N)nc1` [Example 363, 2-Amino-4-furan-2-yl-6-[(5-methyl-pyridin-2-yl-methyl)-amino]-pyrimidine-5-carbonitrile], the Ki was 3.24 nM.

For the origin of these results see patent publication US6586441B2, “Adenosine receptor ligands and their use in the treatment of disease” (Hoffman-La Roche Inc., priority 2000, dated 2003).
